Experimental findings from patent publication US20240174671A1, “New 2,3-Dihydro-1H-pyrrolo[3,2-b]pyridine Derivatives as Sigma Ligands” (ACONDICIONAMIENTO TARRASENSE, priority 2021, published 2024) are described below.

The target of test [1] is T1, human σ2/TMEM97 receptor (Homo sapiens, UniProt Q5BJF2).
T1 construct: expressed in transfected cells; host or cells: HEK-293
The test is described as follows: Binding assay to human σ2/TMEM97 receptor ([3H]-DTG). The following applies: transfected HEK-293 membranes, 10 nM [3H]-DTG, 25° C., 120 minutes; read-out: Binding σ-[…] (binding to σ2-receptor expressed as Ki). The protocol:
Binding Assay to Human σ2/TMEM97 Receptor.
Transfected HEK-293 membranes (15 μg) were incubated with 10 nM [^3H]-1,3-Di-o-tolylguanidine (DTG) in assay buffer containing Tris-HCl 50 mM at pH 8.0. NSB (non-specific binding) was measured by adding 10 μM haloperidol. The binding of the test compound was measured at either one concentration (% inhibition at 1 or 10 µM) or five different concentrations to determine affinity values (Ki). Plates were incubated at 25° C. for 120 minutes. After the incubation period, the reaction mix was transferred to MultiScreen HTS, FC plates (Millipore), filtered and washed 3 times with ice-cold 10 mM Tris-HCL (pH 8.0). Filters were dried and counted at approximately 40% efficiency in a MicroBeta scintillation counter (Perkin-Elmer) using EcoScint liquid scintillation cocktail.

The target in test [2] is T2, human σ1 receptor (Homo sapiens, UniProt Q99720).
T2 construct: expressed in transfected cells; host or cells: HEK-293
The test is described as follows: Human σ1 receptor radioligand assay ([3H](+)-pentazocine). It is filed as binding. The protocol:
Human σ1 Receptor Radioligand Assay
NBS (non-specific binding) was measured by adding 10 μM haloperidol. The binding of the test compound was measured at either one concentration (% inhibition at 1 or 10 µM) or five different concentrations to determine affinity values (Ki). Plates were incubated at 37° C. for 120 minutes. After the incubation period, the reaction mix was then transferred to MultiScreen HTS, FC plates (Millipore), filtered and plates were washed 3 times with ice-cold 10 mM Tris-HCL (pH7.4). Filters were dried and counted at approximately 40% efficiency in a MicroBeta scintillation counter (Perkin-Elmer) using EcoScint liquid scintillation cocktail.

Setting [3] is: transfected HEK-293 membranes, 5 nM [3H](+)-pentazocine, 37° C., 120 minutes, read-out: Binding σ-[…] (binding to σ1-receptor expressed as Ki).

Read-outs that look alike come from different tables or passages of the source.

T1 sequence (Q5BJF2 whole entry): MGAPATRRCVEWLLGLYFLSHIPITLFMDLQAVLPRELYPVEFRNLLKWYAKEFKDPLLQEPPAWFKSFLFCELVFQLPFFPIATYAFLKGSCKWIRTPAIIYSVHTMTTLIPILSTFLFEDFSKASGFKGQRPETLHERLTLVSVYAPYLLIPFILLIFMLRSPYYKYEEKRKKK
T2 sequence (Q99720 whole entry): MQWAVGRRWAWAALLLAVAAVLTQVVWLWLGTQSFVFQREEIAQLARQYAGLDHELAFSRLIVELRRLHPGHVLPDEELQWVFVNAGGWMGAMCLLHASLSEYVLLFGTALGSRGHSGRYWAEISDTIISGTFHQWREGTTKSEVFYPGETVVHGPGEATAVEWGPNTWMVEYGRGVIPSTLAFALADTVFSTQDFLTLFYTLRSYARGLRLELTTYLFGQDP

Broadly, the Ki is a dissociation constant, usually derived from enzyme kinetics or from competition with a known ligand. Turning to `Cc1ccc2c(n1)C(C)(C)CN2C(=O)NC1CCN(Cc2ccccc2)CC1` [Example 1, N-(1-benzylpiperidin-4-yl)-3,3,5-trimethyl-2,3-dihydro-1H-pyrrolo[3,2-b]pyridine-1-carboxamide], the Ki in test [1] was greater than 1000 nM; in test [2] (setting [3]) it was less than 100 nM.
On to `Cc1ccc2c(n1)C(C)(C)CN2C(=O)NCC(c1ccccc1)N(C)C` (centres unmarked) [Example 2, N-(2-(dimethylamino)-2-phenylethyl)-3,3,5-trimethyl-2,3-dihydro-1H-pyrrolo[3,2-b]pyridine-1-carboxamide], for which the Ki was greater than 1000 nM in test [1] and less than 100 nM in test [2].
`CN(C)C(CNC(=O)N1CC(C)(C)c2nc(C(F)(F)F)ccc21)c1ccccc1` (centres unmarked) [Example 3, N-(2-(dimethylamino)-2-phenylethyl)-3,3-dimethyl-5-(trifluoromethyl)-2,3-dihydro-1H-pyrrolo[3,2-b]pyridine-1-carboxamide]: the Ki in test [1] was greater than 1000 nM; in test [2] (setting [3]), 100 to 500 nM.
For `Cc1ccc2c(n1)C(C)(C)CN2C(=O)NC[C@@H](c1ccccc1)N(C)C` [Example 4, (R)—N-(2-(dimethylamino)-2-phenylethyl)-3,3,5-trimethyl-2,3-dihydro-1H-pyrrolo[3,2-b]pyridine-1-carboxamide], the Ki is greater than 1000 nM in test [1] and less than 100 nM in test [2].
As to `CN(C)[C@@H](CNC(=O)N1CC(C)(C)c2ncccc21)c1ccccc1` [Example 5, (R)—N-(2-(dimethylamino)-2-phenylethyl)-3,3-dimethyl-2,3-dihydro-1H-pyrrolo[3,2-b]pyridine-1-carboxamide], the Ki in test [1] is greater than 1000 nM; in test [2] (setting [3]) it was 100 to 500 nM.
Consider `Cc1ccc2c(n1)CCN2C(=O)NC[C@@H](c1ccccc1)N(C)C` [Example 6, (R)—N-(2-(dimethylamino)-2-phenylethyl)-5-methyl-2,3-dihydro-1H-pyrrolo[3,2-t]pyridine-1-carboxamide], for which the inhibitory constant (Ki) in test [1] is greater than 1000 nM; in test [2] (setting [3]) it was 500 to 1000 nM.
Consider `Cc1ccc2c(n1)C(C)(C)CN2C(=O)NCC(c1ccccc1)N1CCCC1` (centres unmarked) [Example 7, 3,3,5-trimethyl-N-(2-phenyl-2-(pyrrolidin-1-yl)ethyl)-2,3-dihydro-1H-pyrrolo[3,2-b]pyridine-1-carboxamide], for which the inhibition constant (Ki) in test [1] is greater than 1000 nM; in test [2] (setting [3]), 100 to 500 nM.
For the compound `Cc1ccc2c(n1)C(C)(C)CN2C(=O)N(C)C[C@@H](c1ccccc1)N(C)C` [Example 8, (R)—N-(2-(dimethylamino)-2-phenylethyl)-N,3,3,5-tetramethyl-2,3-dihydro-1H-pyrrolo[3,2-b]pyridine-1-carboxamide], the results for the inhibition constant Ki in test [1] and in test [2] (setting [3]) were greater than 1000 nM and 500 to 1000 nM, respectively.
`CCN(CC)C(CNC(=O)N1CC(C)(C)c2nc(C)ccc21)c1ccccc1` (centres unmarked) [Example 9, N-(2-(diethylamino)-2-phenylethyl)-3,3,5-trimethyl-2,3-dihydro-1H-pyrrolo[3,2-b]pyridine-1-carboxamide]: the inhibition constant Ki in test [1] was greater than 1000 nM; in test [2] (setting [3]) it was less than 100 nM.
In the case of `Cc1ccc2c(n1)C(C)(C)CN2C(=O)N1CCN(Cc2ccccc2)CC1` [Example 10, (4-benzylpiperazin-1-yl)(3,3,5-trimethyl-2,3-dihydro-1H-pyrrolo[3,2-b]pyridin-1-yl)methanone], the Ki in test [1] is greater than 1000 nM; in test [2] (setting [3]), 100 to 500 nM.
On to `Cc1ccc2c(n1)C(C)(C)CN2C(=O)N1CCC(N(C)Cc2ccccc2)CC1` [Example 11, (4-(benzyl(methyl)amino)piperidin-1-yl)(3,3,5-trimethyl-2,3-dihydro-1H-pyrrolo[3,2-b]pyridin-1-yl)methanone], for which the Ki in test [1] was less than 100 nM; in test [2] (setting [3]), 100 to 500 nM.
`Cc1ccc2c(n1)C(C)(C)CN2C(=O)NC[C@H](Cc1ccccc1)N(C)C` [Example 12, (S)—N-(2-(dimethylamino)-3-phenylpropyl)-3,3,5-trimethyl-2,3-dihydro-1H-pyrrolo[3,2-b]pyridine-1-carboxamide]: the Ki is greater than 1000 nM in test [1] and less than 100 nM in test [2].
For `COc1ccc(C(CNC(=O)N2CC(C)(C)c3nc(C)ccc32)N(C)C)cc1` (centres unmarked) [Example 13, N-(2-(dimethylamino)-2-(4-methoxyphenyl)ethyl)-3,3,5-trimethyl-2,3-dihydro-1H-pyrrolo[3,2-b]pyridine-1-carboxamide], the Ki was greater than 1000 nM in test [1] and less than 100 nM in test [2].
As to `CN(C)[C@@H](CNC(=O)N1CC(C)(C)c2ncc(Cl)cc21)c1ccccc1` [Example 14, (R)-6-chloro-N-(2-(dimethylamino)-2-phenylethyl)-3,3-dimethyl-2,3-dihydro-1H-pyrrolo[3,2-b]pyridine-1-carboxamide], the inhibitory constant (Ki) in test [1] is greater than 1000 nM; in test [2] (setting [3]), 100 to 500 nM.
On to `CN(C)[C@@H](CNC(=O)N1CC(C)(C)c2nc(C#N)ccc21)c1ccccc1` [Example 15, (R)-5-cyano-N-(2-(dimethylamino)-2-phenylethyl)-3,3-dimethyl-2,3-dihydro-1H-pyrrolo[3,2-b]pyridine-1-carboxamide], for which the Ki in test [1] is greater than 1000 nM; in test [2], less than 100 nM.
On to `Cc1nc2c(cc1F)N(C(=O)NC[C@@H](c1ccccc1)N(C)C)CC2(C)C` [Example 16, (R)—N-(2-(dimethylamino)-2-phenylethyl)-6-fluoro-3,3,5-trimethyl-2,3-dihydro-1H-pyrrolo[3,2-b]pyridine-1-carboxamide], for which the Ki was greater than 1000 nM in test [1] and less than 100 nM in test [2] (setting [3]).
Turning to `COc1ccc2c(n1)C(C)(C)CN2C(=O)NC[C@@H](c1ccccc1)N(C)C` [Example 17, (R)—N-(2-(dimethylamino)-2-phenylethyl)-5-methoxy-3,3-dimethyl-2,3-dihydro-1H-pyrrolo[3,2-b]pyridine-1-carboxamide], the results for the Ki in test [1] and in test [2] (setting [3]) were greater than 1000 nM and less than 100 nM, respectively.
For the compound `Cc1ccc2c(n1)C(C)(C)CN2C(=O)N[C@@H]1CCN(Cc2ccccc2)C1` [Example 18, (R)—N-(1-benzylpyrrolidin-3-yl)-3,3,5-trimethyl-2,3-dihydro-1H-pyrrolo[3,2-b]pyridine-1-carboxamide], the Ki in test [1] and in test [2] (setting [3]) was 100 to 500 nM in each case.
For the compound `Cc1ccc2c(n1)C(C)(C)CN2C(=O)NCC(c1ccccc1F)N(C)C` (centres unmarked) [Example 19, N-(2-(dimethylamino)-2-(2-fluorophenyl)ethyl)-3,3,5-trimethyl-2,3-dihydro-1H-pyrrolo[3,2-b]pyridine-1-carboxamide], the figures for the Ki in test [1] and in test [2] (setting [3]) were greater than 1000 nM and 100 to 500 nM, respectively.
`CN(C)[C@@H](CNC(=O)N1CC(C)(C)c2ncc(F)cc21)c1ccccc1` [Example 20, (R)—N-(2-(dimethylamino)-2-phenylethyl)-6-fluoro-3,3-dimethyl-2,3-dihydro-1H-pyrrolo[3,2-b]pyridine-1-carboxamide]: the Ki was greater than 1000 nM in test [1] and less than 100 nM in test [2] (setting [3]).
`Cc1ccc2c(n1)C(C)(C)CN2C(=O)N[C@H]1CCN(Cc2ccccc2)C1` [Example 21, (S)—N-(1-benzylpyrrolidin-3-yl)-3,3,5-trimethyl-2,3-dihydro-1H-pyrrolo[3,2-b]pyridine-1-carboxamide]: the figures for the Ki in test [1] and in test [2] (setting [3]) were greater than 1000 nM and 100 to 500 nM, respectively.
As for `Cc1ccc2c(n1)C(C)(C)CN2C(=O)NC1CCN(Cc2ccc(F)cc2)CC1` [Example 22, N-(1-(4-fluorobenzyl)piperidin-4-yl)-3,3,5-trimethyl-2,3-dihydro-1H-pyrrolo[3,2-b]pyridine-1-carboxamide], the Ki was 500 to 1000 nM in test [1] and less than 100 nM in test [2] (setting [3]).
For `Cc1ccc2c(n1)C(C)(C)CN2C(=O)NC1CCN(Cc2cccc(C#N)c2)CC1` [Example 23, N-(1-(3-cyanobenzyl)piperidin-4-yl)-3,3,5-trimethyl-2,3-dihydro-1H-pyrrolo[3,2-b]pyridine-1-carboxamide] the same measures were greater than 1000 nM and 100 to 500 nM.
Regarding `Cc1ccc2c(n1)C(C)(C)CN2C(=O)NC1CCN(Cc2ccc(C#N)cc2)CC1` [Example 24, N-(1-(4-cyanobenzyl)piperidin-4-yl)-3,3,5-trimethyl-2,3-dihydro-1H-pyrrolo[3,2-b]pyridine-1-carboxamide], the results for the Ki in test [1] and in test [2] (setting [3]) were greater than 1000 nM and less than 100 nM, respectively.
For `Cc1ccc2c(n1)C(C)(C)CN2C(=O)NC1CCN(CCC(C)C)CC1` [Example 25, N-(1-isopentylpiperidin-4-yl)-3,3,5-trimethyl-2,3-dihydro-1H-pyrrolo[3,2-b]pyridine-1-carboxamide] the same measures were 100 to 500 nM and less than 100 nM.
With `Cc1ccc2c(n1)C(C)(C)CN2C(=O)NC1CCN(Cc2cccc(F)c2)CC1` [Example 26, N-(1-(3-fluorobenzyl)piperidin-4-yl)-3,3,5-trimethyl-2,3-dihydro-1H-pyrrolo[3,2-b]pyridine-1-carboxamide], the Ki was greater than 1000 nM in test [1] and less than 100 nM in test [2] (setting [3]).
As for `CC1(C)CN(C(=O)NC2CCN(Cc3ccccc3)CC2)c2ccc(C#N)nc21` [Example 30, N-(1-benzylpiperidin-4-yl)-5-cyano-3,3-dimethyl-2,3-dihydro-1H-pyrrolo[3,2-b]pyridine-1-carboxamide], the Ki in test [2] (setting [3]) was less than 100 nM.
